What was measured:
[1] = tested on: VIOTR; test: Pre-emergence herbicidal action against VIOTR; format: in vivo, Viola tricolor; details: application rate 80 g/ha
Source text: (§1) 1. Pre-emergence herbicidal action against harmful plants and crop plant compatibility Seeds of monocotyledonous and dicotyledonous weed plants and crop plants are placed in plastic or wood-fibre pots and covered with soil. The compounds of the invention, formulated in the form of wettable powders (WP) or as emulsion concentrates (EC), are then applied onto the surface of the covering soil as aqueous suspension or emulsion with addition of 0.5% additive at a water application rate of 600 l/ha (converted). After the treatment, the pots are placed in a greenhouse and kept under good growth conditions for the trial plants. After about 3 weeks, the effect of the preparations is scored visually in comparison with untreated controls as percentages. For example, 100% activity=the plants have died, 0% activity=like control plants. [table]

[2] = tested on: VERPE; test: Post-emergence herbicidal action against VERPE; format: in vivo, Veronica persica; details: application rate 80 g/ha
Method in brief: (§2)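 Spray-treated at one-leaf stage, 2 to 3 weeks after sowing; greenhouse, sandy loam. Formulation WP or EC, 0.5% additive, 600 l/ha. Readout: visual percent activity at about 3 weeks, untreated = 0%.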

[3] = tested on: LOLRI; test: Post-emergence herbicidal action against LOLRI; format: in vivo, Lolium rigidum; details: application rate 80 g/ha, rated visually after about 3 weeks
Method in brief: as §2

[4] = tested on: LOLRI; test: Pre-emergence herbicidal action against LOLRI; format: in vivo, Lolium rigidum; details: application rate 80 g/ha, scored visually after about 3 weeks vs untreated controls (100% = plants have died, 0% = like control plants)
Source text: as §1

[5] = tested on: POLCO; test: Pre-emergence herbicidal action against POLCO; format: in vivo, Polygonum convolvulus; details: application rate 80 g/ha
Source text: as §1

[6] = tested on: ABUTH; test: Post-emergence herbicidal action against ABUTH; format: in vivo, Abutilon theophrasti; details: application rate 80 g/ha, rated visually about 3 weeks after treatment
Method in brief: as §2

[7] = tested on: PHBPU; test: Post-emergence herbicidal action against PHBPU; format: in vivo, Pharbitis purpurea; details: application rate 80 g/ha, rated visually about 3 weeks after treatment
Method in brief: as §2

[8] = tested on: AVEFA; test: Post-emergence herbicidal action against AVEFA; format: in vivo, Avena fatua; details: application rate 80 g/ha, rated visually after about 3 weeks
Method in brief: as §2

[9] = tested on: ALOMY; test: Pre-emergence herbicidal action against ALOMY; format: in vivo, Alopecurus myosuroides; details: application rate 80 g/ha, scored visually after about 3 weeks vs untreated controls (100% = plants have died, 0% = like control plants)
Source text: as §1

[10] = tested on: POLCO; test: Post-emergence herbicidal action against POLCO; format: in vivo, Polygonum convolvulus; details: application rate 80 g/ha, rated visually about 3 weeks after treatment
Method in brief: as §2

[11] = tested on: AVEFA; test: Pre-emergence herbicidal action against AVEFA; format: in vivo, Avena fatua; details: application rate 80 g/ha, scored visually after about 3 weeks vs untreated controls (100% = plants have died, 0% = like control plants)
Source text: as §1

[12] = tested on: STEME; test: Pre-emergence herbicidal action against STEME; format: in vivo, Stellaria media; details: application rate 80 g/ha
Source text: as §1

[13] = tested on: AMARE; test: Post-emergence herbicidal action against AMARE; format: in vivo, Amaranthus retroflexus; details: application rate 80 g/ha, rated visually about 3 weeks after treatment
Method in brief: as §2

[14] = tested on: ABUTH; test: Pre-emergence herbicidal action against ABUTH; format: in vivo, Abutilon theophrasti; details: application rate 80 g/ha, scored visually after about 3 weeks vs untreated controls (100% = plants have died, 0% = like control plants)
Source text: as §1

[15] = tested on: ALOMY; test: Post-emergence herbicidal action against ALOMY; format: in vivo, Alopecurus myosuroides; details: application rate 80 g/ha, rated visually after about 3 weeks
Method in brief: as §2

[16] = tested on: SETVI; test: Pre-emergence herbicidal action against SETVI; format: in vivo, Setaria viridis; details: application rate 80 g/ha, scored visually after about 3 weeks vs untreated controls (100% = plants have died, 0% = like control plants)
Source text: as §1

[17] = tested on: AMARE; test: Pre-emergence herbicidal action against AMARE; format: in vivo, Amaranthus retroflexus; details: application rate 80 g/ha
Source text: as §1

[18] = tested on: STEME; test: Post-emergence herbicidal action against STEME; format: in vivo, Stellaria media; details: application rate 80 g/ha, rated visually about 3 weeks after treatment
Method in brief: as §2

[19] = tested on: SETVI; test: Post-emergence herbicidal action against SETVI; format: in vivo, Setaria viridis; details: application rate 80 g/ha, rated visually after about 3 weeks
Method in brief: as §2

[20] = tested on: ECHCG; test: Pre-emergence herbicidal action against ECHCG; format: in vivo, Echinochloa crus-galli; details: application rate 80 g/ha, scored visually after about 3 weeks vs untreated controls (100% = plants have died, 0% = like control plants)
Source text: as §1

[21] = tested on: VERPE; test: Pre-emergence herbicidal action against VERPE; format: in vivo, Veronica persica; details: application rate 80 g/ha
Source text: as §1

[22] = tested on: PHBPU; test: Pre-emergence herbicidal action against PHBPU; format: in vivo, Pharbitis purpurea; details: application rate 80 g/ha
Source text: as §1

[23] = tested on: HORMU; test: Pre-emergence herbicidal action against HORMU; format: in vivo, Hordeum murinum; details: application rate 80 g/ha
Source text: as §1

[24] = tested on: ECHCG; test: Post-emergence herbicidal action against ECHCG; format: in vivo, Echinochloa crus-galli; details: application rate 80 g/ha, rated visually after about 3 weeks
Method in brief: as §2

[25] = tested on: MATIN; test: Pre-emergence herbicidal action against MATIN; format: in vivo, Matricaria inodora; details: application rate 80 g/ha, scored visually after about 3 weeks vs untreated controls (100% = plants have died, 0% = like control plants)
Source text: as §1

[26] = tested on: HORMU; test: Post-emergence herbicidal action against HORMU; format: in vivo, Hordeum murinum; details: application rate 80 g/ha
Method in brief: as §2

[27] = tested on: VIOTR; test: Post-emergence herbicidal action against VIOTR; format: in vivo, Viola tricolor; details: application rate 80 g/ha, rated visually about 3 weeks after treatment
Method in brief: as §2

[28] = tested on: MATIN; test: Post-emergence herbicidal action against MATIN; format: in vivo, Matricaria inodora; details: application rate 80 g/ha, rated visually about 3 weeks after treatment
Method in brief: as §2

Row | SMILES | Herbicidal action against [%] VIOTR [1] [%] | Herbicidal action against [%] LOLRI [3] [%] | Herbicidal action against [%] LOLRI [4] [%] | Herbicidal action against [%] POLCO [5] [%] | Herbicidal action against [%] PHBPU [7] [%] | Herbicidal action against [%] AVEFA [8] [%] | Herbicidal action against [%] ALOMY [9] [%] | Herbicidal action against [%] AVEFA [11] [%] | Herbicidal action against [%] STEME [12] [%] | Herbicidal action against [%] AMARE [13] [%] | Herbicidal action against [%] ALOMY [15] [%] | Herbicidal action against [%] SETVI [16] [%] | Herbicidal action against [%] AMARE [17] [%] | Herbicidal action against [%] STEME [18] [%] | Herbicidal action against [%] SETVI [19] [%] | Herbicidal action against [%] ECHCG [20] [%] | Herbicidal action against [%] PHBPU [22] [%] | Herbicidal action against [%] HORMU [23] [%] | Herbicidal action against [%] ECHCG [24] [%] | Herbicidal action against [%] MATIN [25] [%] | further results
1 | CC(C)C(C#N)NC(=O)C1C=CC(NC(=O)C2(C)CC(c3cc(F)cc(F)c3)=NO2)C1 (mixture of isomers) [II-12] | 80 | 80 | 90 | 100 | 80 | 80 | 90 | 80 | 90 | 80 | 90 | 90 | 90 | 90 | 80 | – | – | – | – | – | Herbicidal action against [%] VERPE [2]: 80%; Herbicidal action against [%] ABUTH [6]: 80%; Herbicidal action against [%] POLCO [10]: 80%; Herbicidal action against [%] ABUTH [14]: 80%
2 | CN(C)C(=O)C1=CCC(NC(=O)C2(C)CC(c3cccc(F)c3)=NO2)C1 (mixture of isomers) [IV-02] | 90 | – | 100 | 100 | – | – | 100 | 90 | 90 | – | – | 90 | 100 | – | – | 90 | 80 | 100 | – | – | Herbicidal action against [%] VERPE [21]: 90%; Herbicidal action against [%] POLCO [10]: 80%; Herbicidal action against [%] ABUTH [14]: 80%
3 | CC1(C(=O)NC2CC=C(C(=O)NS(C)(=O)=O)C2)CC(c2cccc(F)c2)=NO1 (mixture of isomers) [IV-07] | 90 | 90 | 90 | 80 | 80 | 80 | 100 | 80 | 100 | 80 | 90 | 100 | 80 | 90 | 80 | – | 90 | 90 | 80 | 80 | Herbicidal action against [%] VERPE [2]: 80%; Herbicidal action against [%] HORMU [26]: 90%; Herbicidal action against [%] POLCO [10]: 80%; Herbicidal action against [%] VIOTR [27]: 80%
4 | CC1(C(=O)N[C@H]2C=C[C@@H](C(=O)O)C2)CC(c2cccc(F)c2)=NO1 (some centres unmarked) [Example I-002] | 80 | 80 | 100 | 90 | 80 | 80 | 90 | 80 | 100 | – | 90 | 100 | 90 | 90 | 80 | 90 | 90 | 80 | 80 | 80 | Herbicidal action against [%] MATIN [28]: 80%
5 | COC(=O)[C@@H]1C=C[C@H](NC(=O)C2(C)CC(c3cccc(F)c3)=NO2)C1 (some centres unmarked) [Example I-004] | – | 80 | 90 | 100 | – | 90 | 100 | 90 | 100 | 80 | 80 | 100 | 80 | 80 | 80 | 100 | 90 | – | 80 | 80 | –
6 | C=CC1(C(=O)NC2C=CC(C(=O)OC)C2)CC(c2cc(F)cc(F)c2)=NO1 (centres unmarked) [Example I-012] | 90 | 90 | 100 | 90 | 90 | 100 | 100 | 90 | 100 | 90 | 90 | 100 | 100 | 80 | 90 | 100 | 90 | 90 | 90 | 90 | Herbicidal action against [%] VERPE [2]: 80%; Herbicidal action against [%] MATIN [28]: 90%; Herbicidal action against [%] HORMU [26]: 100%; Herbicidal action against [%] VERPE [21]: 100%; Herbicidal action against [%] ABUTH [6]: 80%; Herbicidal action against [%] POLCO [10]: 80%; Herbicidal action against [%] ABUTH [14]: 90%; Herbicidal action against [%] VIOTR [27]: 80%
7 | CONC(=O)[C@@H]1C=C[C@H](NC(=O)C2(C)CC(c3cc(F)cc(F)c3)=NO2)C1 (some centres unmarked) [II-02] | 90 | 80 | 90 | 100 | – | 80 | 90 | 90 | 100 | 80 | 80 | 100 | 100 | 90 | 80 | 80 | 90 | – | 80 | 90 | –
8 | CCONC(=O)[C@@H]1C=C[C@H](NC(=O)C2(C)CC(c3cccc(F)c3)=NO2)C1 (some centres unmarked) [II-04] | – | 80 | 90 | 90 | – | 80 | 100 | 80 | 100 | – | 80 | 90 | 100 | 80 | 80 | 90 | – | 90 | 80 | 80 | –

Reference: US12319664B2, “Herbicidally active 3-phenylisoxazoline-5-carboxamides of cyclopentenylcarboxylic acid derivatives” (Bayer Aktiengesellschaft, priority 2018, dated 2025)
